Measured values taken from US20220218614A1, “IONIZABLE CATIONIC LIPIDS AND LIPID NANOPARTICLES, AND METHODS OF SYNTHESIS AND USE THEREOF” (Tidal Therapeutics, Inc., priority 2020, published 2022).
Where “and” joins values, the source holds several entries; their conditions need not be identical. Equal values may be shown once. Entries after “also recorded” stand apart in the source; their conditions may differ.

Columns and labels:
[1] = Hydrodynamic diameter and polydispersity of LNPs by dynamic light scattering (DLS), Zetasizer; assay type: physicochemical
Method: (§1) Samples of the LNPs produced in Example 2 were characterized to determine the average hydrodynamic diameter, zeta potential, and mRNA content (total and dye-accessible). The hydrodynamic diameter was determined by dynamic light scattering (DLS) using a Zetasizer model ZEN3600 (Malvern Pananalytical, UK). The zeta potential was measured in 5 mM pH 5.5 MES buffer and 5 mM pH 7.4 HEPES buffer by laser Doppler electrophoresis using the Zetasizer.

[2] = Zeta potential of LNPs by laser Doppler electrophoresis in 5 mM pH 5.5 MES and 5 mM pH 7.4 HEPES buffer; assay type: physicochemical; conditions: pH 5.5 MES and pH 7.4 HEPES buffer
Method: as §1

[3] = Quant-iT RiboGreen RNA assay: dye accessible and total (Triton) mRNA content, encapsulation; assay type: physicochemical
Method: RNA content of the nanoparticles is measured using Thermo Fisher Quant-iT RiboGreen RNA Assay Kit. Dye accessible RNA, which includes both non-incorporated RNA and RNA that is near the surface of the nanoparticle, is measured by diluting the nanoparticles to approximately 1 μg/mL mRNA using HEPES buffered saline, and then adding Quant-iT reagent to the mixture. Total RNA content is measured by diluting the particles to 1 μg/mL mRNA using HEPES buffered saline, disrupting the nanoparticles by heating them to 60° C. for 30 minutes in HEPES buffered saline containing 0.5% Triton, and then adding Quant-It reagent. RNA is quantified by measuring fluorescence at 485/535 nm, and concentration is determined relative to a contemporaneously run RNA standard curve.

[4] = system: primary human T-cells (CD3+ T cells); test: In vitro LNP transfection of primary human T-cells (GFP, Cy5 or DiI, viability by FACS); assay type: cell-based; conditions: for GFP protein expression (% GFP+ cells, GFP MFI), in words: hSP34 targeted LNP with GFP mRNA; for GFP protein expression (% GFP+ cells, GFP MFI), in words / T-cell viability / tolerability, in words / LNP association with cells (% Cy5+/Cy5 MFI or % DiI+/DiI MFI), in words: 24 hours; for T-cell viability / tolerability, in words / LNP association with cells (% Cy5+/Cy5 MFI or % DiI+/DiI MFI), in words: hSP34 targeted LNP; for T-cell viability / tolerability, in words: dose as in the value; for T-cell viability (% live): PBS control about 50%
From the text: This example describes the protocol used for in vitro LNP transfections in primary human T-cells. This method is used to assess LNP in vitro efficacy in relevant target cells (CD3+ T cells) by first transfecting the cells using LNPs loaded with mRNA encoding for a reporter gene, such as GFP mRNA, and then assessing transfection by measuring reporter gene expression by fluorescence-[…] cell sorting (FACS). Additionally, particle association with cells may be observed by in the same assay by labeling individual nanoparticle components, such as the mRNA, with a fluorescent dye, such as Cy5, and then observing cell/dye association by FACS.
CD3+ T cells were isolated from frozen peripheral blood mononuclear cells using an EasySep Human T Cell Isolation Kit on a RoboSep automated cell isolation system from […]. T cells were plated into a flat bottom 96-well plate in RPMI cell culture media supplemented with glutamax, 10% fetal bovine serum, and 40 ng/mL IL2. 100 μL of cell suspension was seeded per well at a density of 1M T cells/mL (100K T cells/well). Cells were allowed to rest for two hours in a 37° C. incubator, and then were transfected by gently adding 10 μL of a 22 μg/mL (by mRNA) nanoparticle suspension, resulting in a final mRNA concentration of 2 μg/mL. Cells were gently mixed with a pipette and then incubated for 24 hours in a 37° C. incubator. After incubation the cells were analyzed using an ThermoFisher Attune NXT flow cytometer. Cy5 was detected using a 638 nm laser with 670/14 nm filter. eGFP was detected using a 488 nm laser and a 530/30 nm filter. Data were analyzed using FlowJo software from BD biosciences. FACS data were first gated to exclude doublets and dead cells and then gated for GFP and Cy5. Gates for GFP+ and Cy5+were set such that a control sample (PBS treated T cells) was <0.1% positive.
CD3+ T cells were isolated from frozen peripheral blood mononuclear cells using an EasySep Human T Cell Isolation Kit on a RoboSep automated cell isolation system from […]. T cells were plated into a round bottom 96-well plate in RPMI cell culture media supplemented with glutamax, 10% fetal bovine serum, pen-strep, and 40 ng/mL IL-2. 100 μL of cell suspension was seeded per well at a density of 1M T cells/mL (100K T cells/well). Cells were allowed to rest for two hours in a 37° C. incubator, and then were transfected by gently adding 10 μL of a 22 μg/mL (by mRNA) nanoparticle suspension, resulting in a final mRNA concentration of 2 μg/mL (unless otherwise noted). Cells were gently mixed with a pipette and then incubated for 24 hours in a 37° C. incubator. After incubation the cells were diluted with FACS buffer (BD 554657) and analyzed using a BD Fortessa flow cytometer. Data were analyzed using FlowJo software from BD biosciences.

[5] = Apparent pKa of LNPs by TNS fluorescent probe; assay type: physicochemical; conditions: LNP made with the named ionizable lipid; pH at 50% of maximum TNS fluorescence
From the text: This example describes the fluorescent dye based method used for measurement of the apparent pKa of the lipid nanoparticles. Apparent pKa determines the nanoparticle surface charge under physiological pH conditions, typically a pKa value in the endosomal pH range (6-7.4) results in LNPs that are neutral or slightly charged at plasma or the extracellular space (pH 7.4) and become strongly positive under acidic endosomal environments. This positive surface charge drives fusion of the LNP surface with negatively charged endosomal membranes resulting in destabilization and rupture of the endosomal compartment and LNP escape into the cytosolic compartment, a critical step in cytosolic delivery of mRNA and protein expression via engagement of the cells ribosomal machinery.
The apparent pKa of LNPs made using ionizable Lipids 2, 5 (synthesized as described in example 1), 6 and 7 (synthesized using method analogous to Lipid 2, 5, respectively, except using diethyl amine instead of dimethyl amine to incorporate the tertiary amine head group) were determined by 6-(p-Toluidino)-2-naphthalenesulfonic acid (TNS) fluorescence measurement in aqueous buffers covering a range of pH values (pH 4-pH 10). TNS is non-fluorescent when free in solution, but which fluoresces strongly when associated with a positively charged lipid nanoparticle. At a pH values below the pKa of the nanoparticle, positive LNP surface charge results in dye recruitment at the particle interface resulting in TNS fluorescence. At pH values above the LNP pKa no fluorescence is observed. The apparent pKa of the LNP is reported as the pH at which the fluorescence is at 50% of its maximum, as determined using a four-point logistic curve fit.

[6] = Table 11A: Lipid 5, Lipid 8 and DLn-MC3-DMA LNP, vortexer mixing, theoretical total mRNA 42.5 ug/mL
[7] = Table 11A: vortexer mixing, theoretical total mRNA 42.5 ug/mL
[8] = Table 25: Lipid 8 and Lipid 5 LNP, theoretical total mRNA 45 ug/mL
[9] = Table 10: Lipid 5 and Lipid 7 LNP, theoretical total mRNA 50 μg/mL

| SMILES | GFP protein expression (% GFP+ cells, GFP MFI), in words [4] | T-cell viability / tolerability, in words [4] | Measured total (Triton method) mRNA [3, 8] [µg/mL] | Ribogreen Dye Accessible mRNA [3, 8] [µg/mL] | also measured |
| --- | --- | --- | --- | --- | --- |
| CCCCC/C=C\C/C=C\CCCCCCCCC(CCCCCCCC/C=C\C/C=C\CCCCC)OC(=O)CCCN(C)C [DLn-MC3-DMA, DLin-MC3-DMA, reference compound] | failed to express GFP protein | better tolerated at higher doses | – | – | polydispersity after antibody conjugate insertion [1]: 0.2; LNP surface charge (zeta potential), in words [2]: positive zeta potential at pH 5.5, and either near neutral or slightly negative charge at pH 7.4; Measured total (Triton method) mRNA [3, 6]: 33 µg/mL; Ribogreen Dye Accessible mRNA [3, 7]: 2 µg/mL |
| CCCCC/C=C\C/C=C\CCCCCCCC(=O)OC[C@H](COC(=O)CCCN(C)C)OC(=O)CCCCCCC/C=C\C/C=C\CCCCC [Lipid 2] | – | well tolerated by T-cells at all LNP doses tested | – | – | apparent pKa of LNP (TNS) [5]: 7.5 |
| CCCCC/C=C\C/C=C\CCCCCCCC(=O)OC[C@H](CCN(C)C)OC(=O)CCCCCCC/C=C\C/C=C\CCCCC [Lipid 5 (N)] | – | – | 36 | 7 | – |
| CCCCC/C=C\C/C=C\CCCCCCCC(=O)OC[C@H](CCN(C)C)OC(=O)CCCCCCC/C=C\C/C=C\CCCCC [Lipid 5 (O)] | – | – | 38 | 7 | – |
| CCCCC/C=C\C/C=C\CCCCCCCC(=O)OCC(CCN(CC)CC)OC(=O)CCCCCCC/C=C\C/C=C\CCCCC (stereo not shown) [Lipid 7] | Dose dependent expression of GFP protein; also recorded: significantly lower level of GFP protein expression relative to Lipid 5 LNP formulation | well tolerated by T-cells at and below 0.5 μg/mL dose | – | – | % Dye Accessible mRNA ([3]; Table 10: Lipid 5 and Lipid 7 LNP): 14%; Measured total (Triton method) mRNA [3, 9]: 43 µg/mL; Ribogreen Dye Accessible mRNA [3, 9]: 6 µg/mL; apparent pKa of LNP (TNS) [5]: ~6.3 and ~6.4; LNP association with cells (% Cy5+/Cy5 MFI or % DiI+/DiI MFI), in words [4]: equally associated with cells |
| CCCCC/C=C\C/C=C\CCCCCCCCC1(CCCCCCCC/C=C\C/C=C\CCCCC)OCC(CCN(C)C)O1 (stereo not shown) [Lipid 8, reference compound] | Dose dependent expression of GFP protein | slightly lower viability at higher dose of 2 μg/mL; also recorded: dose dependent toxicity towards T-cells; also recorded: well tolerated by T-cells at and below 1.0 μg/mL dose | 40 | 4 | polydispersity after antibody conjugate insertion [1]: 0.2; LNP surface charge (zeta potential), in words [2]: positive zeta potential at pH 5.5, and either near neutral or slightly negative charge at pH 7.4; Measured total (Triton method) mRNA [3, 6]: 30 µg/mL; Ribogreen Dye Accessible mRNA [3, 7]: 3 µg/mL; T-cell viability (% live) ([4]; 0.125 ug mRNA/mL per well): about 45%; T-cell viability (% live) ([4]; 2 ug mRNA/mL per well): about 25%; LNP association with cells (% Cy5+/Cy5 MFI or % DiI+/DiI MFI), in words [4]: equally associated with cells |
| CCCCC/C=C\C/C=C\CCCCCCCC(=O)OC[C@H](COC(=O)CCN(C)CCO)OC(=O)CCCCCCC/C=C\C/C=C\CCCCC [Lipid 12] | performed poorly | well tolerated by T-cells at all LNP doses tested | – | – | – |
| CCCCC/C=C\C/C=C\CCCCCCCC(=O)OC[C@H](COC(=O)CCN(CCO)CCO)OC(=O)CCCCCCC/C=C\C/C=C\CCCCC [Lipid 13] | performed poorly | well tolerated by T-cells at all LNP doses tested | – | – | – |
